Experimental findings from article PMC11601558, “SLC6A19 inhibition facilitates urinary neutral amino acid excretion and lowers plasma phenylalanine” (JCI Insight, 2024) are described below.

“And” between values parts separate entries of the source, which are not always exact repeats. Equal values may be shown once. Read-outs that look alike come from different tables or passages of the source.

In one data set the test system is healthy volunteers. The data set can be described thus: Urine amino acid excretion in healthy volunteers (pharmacodynamics). The class given is in vivo, human. The method, then: The effect of JNT-517 on plasma and urine AA levels was measured using an ultra-performance liquid chromatography mass spectrometry assay following 6-aminoquinolyl-N-hydroxysuccinimidyl carbamate (AQC) derivatization. For the SAD study, plasma samples were collected on day –1 and day 1 predose, as well as 24, 48, and 72 hours after dosing. A first morning void urine sample on Days –1 and 1 predose, as well as 2 pooled urine samples 0–8 hours after and 8–24 hours after dose were also collected following study drug administration. For the MAD study, plasma samples were collected on day –1, 1, 7, and 14 predose, as well as day 14, 24 hours after dosing. A first morning void urine samples on day –1, 1, 7, and 14 as well as 2 pooled urine samples 0–8 hours and 8–24 hours after dose on days 1, 7, and 14 were also collected following JNT-517 or placebo administration. Study participants in SAD and MAD cohorts were dosed in the morning following an overnight fast of at least 8 hours and were provided the following meals in relation to dosing times: breakfast after the morning dose, lunch 4 hours after morning dose, optional snack in the afternoon 8 hours after the morning dose and after the second dose for MAD cohorts dosed BID, dinner approximately 10 hours after the morning dose and at least 2 hours after the second dose for MAD cohorts dosed BID. Predose plasma amino acids were drawn after a minimum of 8 hours fasting overnight and after-dose levels were drawn after > 1.5 hours fasting. Resulting plasma and urine amino acid concentration measurements, as well a total amino acid excretion over a time period were summarized using appropriate descriptive statistics and compared with either predose levels or placebo-dose values. Tryptophan was not included in the amino acid panel due to analytical limitations.
IC50 values for transport inhibition in cells overexpressing SLC6A19 and TMEM27 were calculated using a 4-parameter logistic regression in Collaborative Drug Discovery (CDD). Reported IC50 values are geometric means of 4–6 independent experiments. For postmortem intestinal transport assays, single outliers of quadruplicate replicates were excluded from the calculation if a signal value’s distance to the mean exceeded 35% of the signal average. The IC50 values of individual experiments were calculated with a 3- or 4-parameter logistic regression using GraphPad Prism 9. The reported IC50 value represents the geometric mean of n = 5 experiments from 3 individual donors. Statistical comparison of urinary Phe excretion in Pah^enu2 mice treated with vehicle or JN-170 was conducted using 1-way analysis of variance (ANOVA) with Tukey’s post hoc comparison. Statistical analysis of baseline-adjusted plasma Phe in mice treated with vehicle or JN-170 was determined by 2-way ANOVA with Dunnett’s post hoc comparison. All statistical analyses were performed using GraphPad Prism 9. For clinical studies, group sizes were not determined based on statistical power calculations. Statistical significance of pharmacodynamic results was not assessed. Values are reported as mean (urinary Phe excretion, T1/2, Cl/F), geometric mean (Cmax/D, AUC0-inf/D), or median (Tmax).

Data set [1] in a line: JN-170 plasma pharmacokinetics in Pah^enu2 mice, single oral dose. The class given is in vivo, mouse. On the set-up: JN-170 plasma level (Fig 3a) / JN-170 plasma concentration: unit not given here. The settings on record: for JN-170 plasma level (Fig 3a) / concentration at 8 h / concentration at 1 h / concentration at 3 h: individual Pah^enu2 mice; for JN-170 plasma concentration: Fig S3a, Pahenu2 mice, individual animals; for concentration at 8 h / concentration at 1 h / concentration at 3 h: male, BTBR-Pah<enu2>/J (Pah^enu2), mouse, plasma, oral, read-out: JN-170 plasma level (Fig 3a). The method, then:
Male homozygous BTBR-Pah<enu2>/J (Pah^enu2) aged 10–13 weeks were purchased from Jackson Laboratory (no. 002232). Immediately before dosing, each animal’s bladder was manually emptied and a plasma sample was drawn. Animals were dosed by oral gavage with vehicle (10% DMSO, 20% 2-hydroxypropyl-β-cyclodextrin [Sigma-Aldrich]) followed by a 1-week washout prior to dosing with JN-170 at doses ranging from 50 to 250 mg/kg. Following dosing with vehicle or JN-170, animals were individually placed in metabolic cages to collect urine samples. After collection of each urine sample, cages were rinsed with ultra-pure water to recover residual analytes. Blood samples were collected predose as well as 1, 3, 8, 12, and 24 hours after dosing with vehicle or JN-170 into tubes with EDTA as a […], and plasma was separated by centrifuging samples at 2,200g for 5 minutes at 4°C. Throughout the study, mice had access to food and water ad libitum. Plasma and urine samples were stored at –80°C until processing.Ten-week-old male WT C57Bl/6J animals (Si Bei Fu Laboratory Animal Technology Co. Ltd.) were dosed either with vehicle or 50–250 mg/kg JN-170 by oral gavage and blood and urine samples were collected as described. All animals had unrestricted access to food and water during the study; C57Bl/6J were kept on rodent maintenance diet from Beijing Keao Xieli, Pah^enu2 mice were kept on Teklad diet no. T.2018.
Plasma sample analyses were carried out by liquid chromatography tandem mass spectrometry (LC-MS/MS). Plasma samples were mixed 1:1 with carbamazepine or ^13C6-Phe as internal standards for JN-170 and Phe, respectively. Plasma proteins were precipitated by adding 4 volumes of acetonitrile (ACN) and 0.1% formic acid (FA) followed by centrifugation for 5 minutes at 2,100g. Supernatants were diluted 1:1 in ACN and 0.1% FA. For JN-170, a Waters HSS T3 reversed phase column was used for separation using a binary gradient of 0.1% FA in water (mobile phase A) to 0.1% in ACN (mobile phase B). At a flow rate of 0.8 mL/min, the mobile phase gradient increased from an initial 25% phase B to 95% phase B over 30 seconds. After, 1.5 minutes, the gradient was returned to 25% mobile phase B. For detection of Phe, an Acquity UPLC ethylene bridged hybrid (BEH) amide column was used, with a binary gradient of 10 mM ammonium acetate in 95:5:1 H2O:ACN:FA (mobile phase A) to 10 mM ammonium acetate in 95:5:1 ACN:H2O:FA (mobile phase B). At a flow rate of 0.5 mL/min, the mobile phase gradient changed from an initial 100% phase B to 50% phase B over 2.1 minutes. It was returned to 100% phase B after 4 minutes. Analytes were detected using a Sciex API-5500 in multiple reaction monitoring mode using an electrospray ionization source in the positive ion mode with the following ion transitions: m/z 435.2/84.1 (JN-170), 237.1/194.1 (carbamazepine), 166.1/120.1 (Phe), 172.2/126.2 for (^13C6-Phe). Analyte concentrations were calculated with a 1/×^2 linear regression over a concentration range of 1 or 2 to 5,000 ng/mL for JN-170 and 0.05–100 ng/mL for Phe.

With `NC(=O)N1CCC[C@@H](N(C(=O)NCc2ccc(OC(F)(F)F)cc2F)C2CC2)C1` [JNT-517], in the data set with healthy volunteers (MAD day 14, 75 mg BID), the “24 hour Phe excretion, mean ± SD” value worked out at 89 ± 34 mg; the “Phe excreted from 0–8 hours, mean ± SD” value is 32 ± 20 mg; the “urine Phe excreted from 8–24 hours, mean ± SD” value was 56 ± 19 mg. In the data set on healthy volunteers (MAD day 14, 150 mg QD), the “24 hour Phe excretion, mean ± SD” value is given as 72 ± 18 mg; the “Phe excreted from 0–8 hours, mean ± SD” value is 53 ± 16 mg; the “urine Phe excreted from 8–24 hours, mean ± SD” value was determined as 20 ± 11 mg. In the data set with healthy volunteers (SAD 170 mg), the “Phe excreted in urine over a 24 hour period, mean ± SD” value turned out to be 142 ± 30 mg and the “increase in 24 hour urinary Phe vs placebo” value is reported as “approximately 14 fold”. For the same molecule, the “glutamine excreted in urine, mean ± SD” value with healthy volunteers (SAD 170 mg, Supplemental Figure 6) is listed as 1,904 ± 541 mg.

For `N#Cc1ccc(-c2noc([C@]3(C(F)(F)F)CCN(C(=O)NCCC4(N)CC4)C3)n2)cc1` [JN-170], in data set [1] (50 mg/kg), the “coverage above the in vitro IC75” value is “approximately 3 hours”. Further, the “JN-170 plasma level (Fig 3a)” value in data set [1] (50 mg/kg oral, 24 h) was 8.45 and 26.4 and 9.59 and 19.9; in data set [1] (250 mg/kg oral, 1 h), 16600 (2×) and 17000 and 16300 and 17600; in data set [1] (250 mg/kg oral, 24 h) it was 125 and 63 and 72.6. Besides, the JN-170 plasma concentration in data set [1] (time 1 h) is 10400 and 12200 and 13800 and 8750 and 11500 and 12500; in data set [1] (time 3 h), 8500 and 9610 and 10900 and 8710 and 9900 and 11900; in data set [1] (time 8 h), 11000 and 6710 and 8280 and 8610 and 8480 and 9150; in data set [1] (time 12 h) it was 7430 and 5630 and 5750 and 12700 and 9060 and 6600; in data set [1] (time 24 h) it was 33.1 and 16 and 26.9 and 82.7 and 103 and 19.9. In addition, the concentration at 8 h was determined as 456 ng/mL in data set [1] (50 mg/kg, 50 mg/kg oral); 2280 ng/mL in data set [1] (100 mg/kg, 100 mg/kg oral); 8610 ng/mL in data set [1] (200 mg/kg, 200 mg/kg oral); 11200 ng/mL in data set [1] (250 mg/kg, 250 mg/kg oral). Moreover, the concentration at 1 h turned out to be 5780 ng/mL in data set [1] (100 mg/kg, 100 mg/kg oral, 1 h); 8750 ng/mL in data set [1] (200 mg/kg, 200 mg/kg oral, 1 h); 18300 ng/mL in data set [1] (250 mg/kg, 250 mg/kg oral, 1 h). Further, the concentration at 3 h in data set [1] (100 mg/kg, 100 mg/kg oral) was 4240 ng/mL; in data set [1] (200 mg/kg, 200 mg/kg oral), 8710 ng/mL; in data set [1] (250 mg/kg, 250 mg/kg oral), 14800 ng/mL.
